Laboratory results published in patent publication US12116343B2, “Inhibitors of APOL1 and methods of using same” (Vertex Pharmaceuticals Incorporated, priority 2020, dated 2024).

Target: T1, G1 APOL1 (Homo sapiens, UniProt O14791, I384M/S342G)
T1 construct: expressed in transfected cells
T1 sequence (O14791 28-398 S342G/I384M): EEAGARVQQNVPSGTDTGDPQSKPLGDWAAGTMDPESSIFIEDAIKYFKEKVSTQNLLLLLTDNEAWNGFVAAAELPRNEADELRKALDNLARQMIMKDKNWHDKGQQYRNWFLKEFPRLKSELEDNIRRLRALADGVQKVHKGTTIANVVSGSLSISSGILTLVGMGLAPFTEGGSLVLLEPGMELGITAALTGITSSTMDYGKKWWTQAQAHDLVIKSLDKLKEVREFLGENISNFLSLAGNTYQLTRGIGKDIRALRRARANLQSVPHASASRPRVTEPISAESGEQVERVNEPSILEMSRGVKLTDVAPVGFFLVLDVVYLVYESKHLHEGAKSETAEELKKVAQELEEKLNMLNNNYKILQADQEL
Test: Acute APOL1 Thallium Assay with inducible stable clones of HEK 293 cells
Type: cell-based
Settings: HEK 293 T-Rex cells expressing G1 APOL1; read-out: Thallium Assay (IC50)
In short: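 Tetracycline-inducible HEK293 T-Rex clone G1 DC3.25 expressing G1 APOL1, plated at 26000 cells/well in Opti-MEM with tetracycline induction. APOL1 pore activity read on FLIPR as fluorescence increase from Tl+ influx into cells loaded with a Tl+-sensitive AM-ester dye.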

| Structure (SMILES) | IC50 [nM] |
| --- | --- |
| CC1C[C@H](NC(=O)[C@H]2C[C@H](c3c(-c4ccc(F)cc4)[nH]c4c(F)cc(F)cc43)C2)C(=O)N1 (mixture of isomers) [Compound 84] | > 1000 |
| O=C1CC(NC(=O)[C@H]2C[C@H](c3c(-c4ccc(F)cc4)[nH]c4c(F)cc(F)cc43)C2)CN1 (mixture of isomers) [Compound 44] | > 1000 |
| CC(NC(=O)[C@H]1C[C@H](c2c(-c3ccc(F)cc3)[nH]c3c(F)cc(F)cc32)C1)C(N)=O (mixture of isomers) [Compound 68] | 250 to 1000 |
| CC(NC(=O)[C@H]1C[C@H](c2c(-c3ccc(F)cc3)[nH]c3c(F)cc(F)cc32)C1)c1ccn(C)n1 (mixture of isomers) [Compound 75] | 250 to 1000 |
| CC(NC(=O)[C@H]1C[C@H](c2c(-c3ccc(F)cc3)[nH]c3c(F)cc(F)cc32)C1)c1ccnn1C (mixture of isomers) [Compound 76] | > 1000 |
| CC(NC(=O)[C@H]1C[C@H](c2c(-c3ccc(F)cc3)[nH]c3c(F)cc(F)cc32)C1)c1ccn[nH]1 (mixture of isomers) [Compound 81] | 250 to 1000 |
| NC(=O)CNC(=O)[C@H]1C[C@H](c2c(-c3ccc(F)cc3)[nH]c3c(F)cc(F)cc32)C1 [Compound 1, N-(2-amino-2-oxo-ethyl)-3-[5,7-difluoro-2-(4-fluorophenyl)-1H-indol-3-yl]cyclobutanecarboxamide] | < 250 |
| O=C1NCCC1NC(=O)[C@H]1C[C@H](c2c(-c3ccc(F)cc3)[nH]c3c(F)cc(F)cc32)C1 (stereo partly shown) [Compound 2] | < 250 |
| NCC(O)CNC(=O)[C@H]1C[C@H](c2c(-c3ccc(F)cc3)[nH]c3c(F)cc(F)cc32)C1 (stereo partly shown) [Compound 3] | 250 to 1000 |
| NCCCNC(=O)[C@H]1C[C@H](c2c(-c3ccc(F)cc3)[nH]c3c(F)cc(F)cc32)C1 [Compound 4] | 250 to 1000 |
| O=C(NCC1CC(F)(F)C1)[C@H]1C[C@H](c2c(-c3ccc(F)cc3)[nH]c3c(F)cc(F)cc32)C1 [Compound 41] | > 1000 |
| O=C(NCC1CCOCC1)[C@H]1C[C@H](c2c(-c3ccc(F)cc3)[nH]c3c(F)cc(F)cc32)C1 [Compound 42] | > 1000 |
| O=C1NCC[C@H]1NC(=O)[C@H]1C[C@H](c2c(-c3ccc(F)cc3)[nH]c3c(F)cc(F)cc32)C1 [Compound 45] | 250 to 1000 |
| O=C(NCCO)[C@H]1C[C@H](c2c(-c3ccc(F)cc3)[nH]c3c(F)cc(F)cc32)C1 [Compound 46, 3-[5,7-difluoro-2-(4-fluorophenyl)-1H-indol-3-yl]-N-(2-hydroxyethyl)cyclobutanecarboxamide] | < 250 |
| O=C(NC1(CO)CC1)[C@H]1C[C@H](c2c(-c3ccc(F)cc3)[nH]c3c(F)cc(F)cc32)C1 [Compound 47] | 250 to 1000 |
| Cn1cnc(CNC(=O)[C@H]2C[C@H](c3c(-c4ccc(F)cc4)[nH]c4c(F)cc(F)cc43)C2)c1 [Compound 48] | < 250 |
| CN(CC1(CO)CC1)C(=O)[C@H]1C[C@H](c2c(-c3ccc(F)cc3)[nH]c3c(F)cc(F)cc32)C1 [Compound 49] | > 1000 |
| O=C(CNC(=O)[C@H]1C[C@H](c2c(-c3ccc(F)cc3)[nH]c3c(F)cc(F)cc32)C1)NC1CC1 [Compound 50] | > 1000 |
| CN(CC(N)=O)C(=O)[C@H]1C[C@H](c2c(-c3ccc(F)cc3)[nH]c3c(F)cc(F)cc32)C1 [Compound 51] | 250 to 1000 |
| O=C([C@H]1C[C@H](c2c(-c3ccc(F)cc3)[nH]c3c(F)cc(F)cc32)C1)N(CCO)C1CC1 [Compound 52] | 250 to 1000 |
| COCC1(CNC(=O)[C@H]2C[C@H](c3c(-c4ccc(F)cc4)[nH]c4c(F)cc(F)cc43)C2)CC1 [Compound 53] | > 1000 |
| COCC1(NC(=O)[C@H]2C[C@H](c3c(-c4ccc(F)cc4)[nH]c4c(F)cc(F)cc43)C2)CC1 [Compound 54] | < 250 |
| CCOCC1(CNC(=O)[C@H]2C[C@H](c3c(-c4ccc(F)cc4)[nH]c4c(F)cc(F)cc43)C2)CC1 [Compound 55] | > 1000 |
| NC(=O)C1(NC(=O)[C@H]2C[C@H](c3c(-c4ccc(F)cc4)[nH]c4c(F)cc(F)cc43)C2)CC1 [Compound 56] | 250 to 1000 |
| O=C([C@H]1C[C@H](c2c(-c3ccc(F)cc3)[nH]c3c(F)cc(F)cc32)C1)N1C[C@@H](CO)OCC12CC2 [Compound 57] | > 1000 |
